Measured values published in ChEMBL document CHEMBL4270572, “Synthesis and biological evaluation of novel larotaxel analogues” (Eur J Med Chem, 2018).

Key:
in vivo [1] = conditions: beagle, dog, iv, 0.6 mg/kg
in vivo [2] = conditions: beagle, dog, iv, 1.2 mg/kg
in vivo [3] = conditions: beagle, dog, iv, 0.6 mg/kg; remark: listed apart in the source
in vivo [4] = conditions: beagle, dog, iv, 0.6 mg/kg; remark: listed apart in the source
in vivo [5] = conditions: beagle, dog, iv, 2.4 mg/kg
in vivo [6] = conditions: beagle, dog, iv, 1.2 mg/kg; remark: listed apart in the source
in vivo [7] = conditions: beagle, dog, iv, 2.4 mg/kg; remark: listed apart in the source
in vivo [8] = conditions: beagle, dog, iv, 2.4 mg/kg; remark: listed apart in the source
in vivo [9] = conditions: beagle, dog, iv, 1.2 mg/kg; remark: listed apart in the source
in vivo [10] = conditions: beagle, dog, iv, 1.2 mg/kg; remark: listed apart in the source
in vivo [11] = conditions: beagle, dog, iv, 0.6 mg/kg; remark: listed apart in the source
in vivo [12] = conditions: beagle, dog, iv, 2.4 mg/kg; remark: listed apart in the source

Molecule CC(=O)O[C@H]1C(=O)[C@]23C[C@H]2C[C@H]2OC[C@@]2(OC(C)=O)[C@H]3[C@H](OC(=O)c2ccccc2)[C@]2(O)C[C@H](OC(=O)[C@H](O)[C@H](CC(C)C)NC(=O)OC(C)(C)C)C(C)=C1C2(C)C has a Cmax (in vivo [1]) of 67.1 ng/mL, a Tmax (in vivo [2]) of 0.81 h and a Vd (in vivo [3]) of 45.6 L/kg. It also gave a Tmax (in vivo [4]) of 0.89 h, a half-life (in vivo [5]) of 8.35 h and a half-life (in vivo [6]) of 11.2 h. It also gave a Tmax (in vivo [7]) of 0.97 h, a Cmax (in vivo [8]) of 974 ng/mL and a Cmax (in vivo [9]) of 388 ng/mL. The Vd (in vivo [10]) was 34.8 L/kg, the half-life (in vivo [11]) was 6.06 h and the Vd (in vivo [12]) was 30.8 L/kg.
